{"source": "ChEMBL document CHEMBL5543136", "about": "“Discovery of Novel Heterotricyclic Compounds as DNA-Dependent Protein Kinase (DNA-PK) Inhibitors with Enhanced Chemosensitivity, Oral Bioavailability, and the Ability to Potentiate Cancer Immunotherapy” (J Med Chem, 2024)", "key": {"[1]": {"assay": "Oral bioavailability in male Sprague-Dawley rat at 10 mg/kg measured after 48 hrs by LC-MS/MS analysis", "type": "ADME, organism-based", "conditions": "in vivo"}, "[2]": {"assay": "Toxicity in C57BL/6 mouse implanted with mouse B16-F10 cells assessed as effect on body weight at 10 mg/kg, ip administered once daily for 13 days", "type": "organism-based", "conditions": "in vivo, 312 h, time 13 day"}, "Cell membrane": {"test_system": "Cell membrane", "assay": "Induction of mitochondrial membrane potential loss in human Jurkat cells at 1 uM incubated for 24 hrs in presence of doxorubicin by JC-1 staining based flow cytometric analysis", "type": "cell membranes"}, "HepG2 [3]": {"test_system": "HepG2", "assay": "Inhibition of DNA damage repair in human HepG2 cells assessed as reduction in gammaH2AX fluorescence intensity by DAPI staining based immunofluorescence analysis", "type": "functional, cell-based", "conditions": "dose 10-40 µM"}, "[4]": {"assay": "Tmax in male Sprague-Dawley rat at 10 mg/kg, po measured after 48 hrs by LC-MS/MS analysis", "type": "ADME, organism-based", "conditions": "in vivo"}, "B16-F10 [5]": {"test_system": "B16-F10", "assay": "Antitumor activity against mouse B16-F10 cells implanted in C57BL/6 mouse assessed as tumor growth inhibition at 10 mg/kg, ip administered once daily for 13 days relative to control", "type": "functional", "conditions": "B16-F10, 312 h, time 13 day, read-out: TGI"}, "[6]": {"assay": "Apparent volume of distribution in male Sprague-Dawley rat at 10 mg/kg, po measured after 48 hrs by LC-MS/MS analysis", "type": "ADME, organism-based", "conditions": "in vivo"}, "[7]": {"assay": "Half-life in male Sprague-Dawley rat at 10 mg/kg, po measured after 48 hrs by LC-MS/MS analysis", "type": "ADME, organism-based", "conditions": "in vivo"}, "[8]": {"assay": "Selectivity ratio of IC50 for antiproliferative activity against mouse CT26 cells to IC50 for synergistic antiproliferative activity against mouse CT26 cells in presence of doxorubicin", "type": "functional"}, "[9]": {"molecular_target": "DNA-dependent protein kinase catalytic subunit (Homo sapiens, UniProt P78527)", "sequence (P78527 whole entry)": "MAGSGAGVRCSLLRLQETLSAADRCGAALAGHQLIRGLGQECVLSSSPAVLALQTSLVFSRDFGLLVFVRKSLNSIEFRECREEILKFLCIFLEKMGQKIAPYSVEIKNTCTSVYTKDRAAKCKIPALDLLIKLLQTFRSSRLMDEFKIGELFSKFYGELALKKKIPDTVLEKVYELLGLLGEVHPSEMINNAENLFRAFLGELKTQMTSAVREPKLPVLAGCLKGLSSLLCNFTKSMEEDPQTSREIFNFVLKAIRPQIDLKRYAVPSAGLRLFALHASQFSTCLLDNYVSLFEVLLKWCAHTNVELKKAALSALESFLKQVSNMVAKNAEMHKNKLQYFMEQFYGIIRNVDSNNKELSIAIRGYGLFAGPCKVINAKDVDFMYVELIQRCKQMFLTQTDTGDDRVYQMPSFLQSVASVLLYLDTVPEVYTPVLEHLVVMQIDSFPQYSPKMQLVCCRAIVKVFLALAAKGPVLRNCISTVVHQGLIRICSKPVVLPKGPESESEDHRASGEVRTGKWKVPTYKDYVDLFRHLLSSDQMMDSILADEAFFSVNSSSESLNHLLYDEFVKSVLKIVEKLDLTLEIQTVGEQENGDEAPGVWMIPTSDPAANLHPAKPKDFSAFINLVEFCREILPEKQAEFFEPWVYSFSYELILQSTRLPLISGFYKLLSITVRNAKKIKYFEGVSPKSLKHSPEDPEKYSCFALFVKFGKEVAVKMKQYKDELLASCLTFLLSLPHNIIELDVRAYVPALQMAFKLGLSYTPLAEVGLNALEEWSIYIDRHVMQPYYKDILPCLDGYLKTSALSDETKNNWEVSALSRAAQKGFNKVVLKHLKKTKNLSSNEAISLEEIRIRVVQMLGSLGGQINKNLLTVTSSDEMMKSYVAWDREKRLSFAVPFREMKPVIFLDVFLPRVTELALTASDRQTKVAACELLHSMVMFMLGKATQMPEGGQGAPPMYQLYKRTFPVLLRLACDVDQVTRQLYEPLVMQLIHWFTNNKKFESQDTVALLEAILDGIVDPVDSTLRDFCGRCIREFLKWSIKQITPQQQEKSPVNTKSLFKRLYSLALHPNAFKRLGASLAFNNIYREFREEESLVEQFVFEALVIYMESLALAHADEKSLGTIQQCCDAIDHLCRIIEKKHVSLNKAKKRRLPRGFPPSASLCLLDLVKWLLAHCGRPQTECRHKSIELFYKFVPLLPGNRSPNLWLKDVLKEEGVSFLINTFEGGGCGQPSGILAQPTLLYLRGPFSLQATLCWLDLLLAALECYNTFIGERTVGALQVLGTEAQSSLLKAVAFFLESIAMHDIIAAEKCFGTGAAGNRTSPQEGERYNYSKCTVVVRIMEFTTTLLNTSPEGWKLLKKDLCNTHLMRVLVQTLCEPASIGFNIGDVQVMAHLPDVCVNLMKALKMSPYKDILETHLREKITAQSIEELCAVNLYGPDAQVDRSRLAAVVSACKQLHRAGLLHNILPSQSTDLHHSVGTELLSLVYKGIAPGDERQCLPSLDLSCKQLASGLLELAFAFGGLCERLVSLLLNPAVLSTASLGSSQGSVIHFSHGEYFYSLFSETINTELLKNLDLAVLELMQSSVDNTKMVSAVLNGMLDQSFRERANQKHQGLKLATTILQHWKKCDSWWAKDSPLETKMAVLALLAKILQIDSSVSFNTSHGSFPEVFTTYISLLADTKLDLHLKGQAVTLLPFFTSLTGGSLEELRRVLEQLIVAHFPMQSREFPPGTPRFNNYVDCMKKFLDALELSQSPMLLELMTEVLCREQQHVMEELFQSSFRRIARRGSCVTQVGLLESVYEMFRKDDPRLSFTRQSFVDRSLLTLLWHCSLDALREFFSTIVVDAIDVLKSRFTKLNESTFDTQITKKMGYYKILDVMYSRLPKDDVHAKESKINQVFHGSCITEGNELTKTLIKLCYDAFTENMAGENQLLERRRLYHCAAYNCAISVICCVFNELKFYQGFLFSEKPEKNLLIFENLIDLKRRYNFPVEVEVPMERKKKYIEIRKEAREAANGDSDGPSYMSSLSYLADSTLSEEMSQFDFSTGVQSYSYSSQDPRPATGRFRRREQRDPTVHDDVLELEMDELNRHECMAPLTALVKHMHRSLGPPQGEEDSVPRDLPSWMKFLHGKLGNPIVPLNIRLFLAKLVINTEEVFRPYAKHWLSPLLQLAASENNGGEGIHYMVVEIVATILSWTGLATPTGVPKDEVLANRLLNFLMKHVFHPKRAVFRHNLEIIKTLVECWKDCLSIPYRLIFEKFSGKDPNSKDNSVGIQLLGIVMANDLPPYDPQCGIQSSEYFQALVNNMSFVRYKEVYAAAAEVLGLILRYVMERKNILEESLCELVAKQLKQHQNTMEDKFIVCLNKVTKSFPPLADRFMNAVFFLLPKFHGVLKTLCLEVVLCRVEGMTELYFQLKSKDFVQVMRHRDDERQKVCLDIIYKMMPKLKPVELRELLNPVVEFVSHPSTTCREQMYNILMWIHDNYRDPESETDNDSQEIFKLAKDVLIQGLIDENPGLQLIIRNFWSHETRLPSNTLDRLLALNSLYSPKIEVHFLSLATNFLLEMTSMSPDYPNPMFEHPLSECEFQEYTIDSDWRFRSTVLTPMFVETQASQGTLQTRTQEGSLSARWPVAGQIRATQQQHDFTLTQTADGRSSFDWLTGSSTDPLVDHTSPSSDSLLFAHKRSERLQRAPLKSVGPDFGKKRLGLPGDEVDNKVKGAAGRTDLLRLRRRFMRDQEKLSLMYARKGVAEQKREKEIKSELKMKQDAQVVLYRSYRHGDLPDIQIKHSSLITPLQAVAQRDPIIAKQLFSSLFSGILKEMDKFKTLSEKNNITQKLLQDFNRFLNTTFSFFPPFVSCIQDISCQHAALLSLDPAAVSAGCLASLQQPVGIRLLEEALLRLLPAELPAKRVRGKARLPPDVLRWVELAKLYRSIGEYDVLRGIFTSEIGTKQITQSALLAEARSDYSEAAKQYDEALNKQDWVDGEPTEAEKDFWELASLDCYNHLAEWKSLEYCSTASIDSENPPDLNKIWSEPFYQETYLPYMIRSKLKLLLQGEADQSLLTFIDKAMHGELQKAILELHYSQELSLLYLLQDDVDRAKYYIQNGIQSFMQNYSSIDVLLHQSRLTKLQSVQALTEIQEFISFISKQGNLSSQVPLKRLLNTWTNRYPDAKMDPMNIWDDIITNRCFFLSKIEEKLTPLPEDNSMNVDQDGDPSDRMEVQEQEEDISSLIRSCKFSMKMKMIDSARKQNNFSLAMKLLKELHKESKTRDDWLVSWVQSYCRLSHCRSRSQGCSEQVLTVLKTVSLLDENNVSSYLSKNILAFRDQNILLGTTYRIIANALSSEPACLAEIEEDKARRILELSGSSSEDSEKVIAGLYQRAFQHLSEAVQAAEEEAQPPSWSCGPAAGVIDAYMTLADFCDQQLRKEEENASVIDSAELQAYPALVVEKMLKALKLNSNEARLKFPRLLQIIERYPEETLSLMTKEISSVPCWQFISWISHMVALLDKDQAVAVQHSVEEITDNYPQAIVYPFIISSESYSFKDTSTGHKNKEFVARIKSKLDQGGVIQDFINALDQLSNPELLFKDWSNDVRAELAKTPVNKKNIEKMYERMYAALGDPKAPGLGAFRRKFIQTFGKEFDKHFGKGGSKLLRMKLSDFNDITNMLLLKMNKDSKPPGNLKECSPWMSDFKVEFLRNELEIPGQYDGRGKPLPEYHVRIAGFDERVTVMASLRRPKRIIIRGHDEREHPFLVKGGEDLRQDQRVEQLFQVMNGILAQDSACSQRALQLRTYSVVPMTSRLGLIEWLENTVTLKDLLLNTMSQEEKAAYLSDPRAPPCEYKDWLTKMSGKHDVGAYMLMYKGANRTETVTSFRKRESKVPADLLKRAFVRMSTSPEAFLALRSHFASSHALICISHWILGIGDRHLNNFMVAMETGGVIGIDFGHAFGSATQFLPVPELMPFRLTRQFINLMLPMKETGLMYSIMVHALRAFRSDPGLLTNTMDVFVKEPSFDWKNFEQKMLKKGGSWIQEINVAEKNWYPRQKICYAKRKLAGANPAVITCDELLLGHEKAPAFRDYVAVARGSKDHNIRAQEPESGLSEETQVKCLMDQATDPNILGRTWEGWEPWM", "assay": "Inhibition of human full-length DNA-PK using EPPLSQEAFADLWKK as substrate incubated for 60 mins in presence of ATP by ADP-Glo kinase assay"}, "B16-F10 [10]": {"test_system": "B16-F10", "assay": "Immunomodulatory activity in mouse B16-F10 cells implanted in C57BL/6 mouse assessed as percentage of CD3 positive CD4 positive cells in tumor at 10 mg/kg, ip QD co-administered with PD-L1 antibody for 13 days by flow cytometric analysis (reference value: 0.86%)", "type": "functional", "conditions": "time 13 day"}, "[11]": {"assay": "Toxicity in C57BL/6 mouse implanted with mouse B16-F10 cells assessed as change in heart histopathology at 10 mg/kg, ip administered once daily for 13 days by H&E staining based analysis", "type": "organism-based", "conditions": "in vivo, 312 h, time 13 day"}, "B16-F10 [12]": {"test_system": "B16-F10", "assay": "Antitumor activity against mouse B16-F10 cells implanted in C57BL/6 mouse assessed as tumor growth inhibition at 10 mg/kg, ip QD co-administered with SWS1 for 13 days relative to control", "type": "functional", "conditions": "B16-F10, 312 h, time 13 day, read-out: TGI"}, "[13]": {"assay": "Clearance in male Sprague-Dawley rat at 2 mg/kg, iv measured after 48 hrs by LC-MS/MS analysis", "type": "ADME, organism-based", "conditions": "in vivo"}, "B16-F10 [14]": {"test_system": "B16-F10", "assay": "Immunomodulatory activity in mouse B16-F10 cells implanted in C57BL/6 mouse assessed as percentage of CD3 positive CD8 positive cells in tumor at 10 mg/kg, ip QD co-administered with SWS1 for 13 days by flow cytometric analysis (reference value: 0.99%)", "type": "functional", "conditions": "time 13 day"}, "[15]": {"assay": "AUC (0 to infinity) in male Sprague-Dawley rat at 2 mg/kg, iv measured after 48 hrs by LC-MS/MS analysis", "type": "ADME, organism-based", "conditions": "in vivo"}, "[16]": {"assay": "Toxicity in BALB/c mouse implanted with mouse CT26 cells assessed as weight loss at 10 mg/kg, ip QD co-administered with doxorubicin for 21 days", "type": "organism-based", "conditions": "in vivo, 504 h, time 21 day"}, "[17]": {"assay": "Cmax in male Sprague-Dawley rat at 10 mg/kg, po measured after 48 hrs by LC-MS/MS analysis", "type": "ADME, organism-based", "conditions": "in vivo"}, "HepG2 [18]": {"test_system": "HepG2", "assay": "Inhibition of DNA damage repair in human HepG2 cells assessed as reduction in gammaH2AX expression level by Western blot analysis", "type": "functional, cell-based", "conditions": "dose 10-40 µM"}, "[19]": {"assay": "AUC (0 to infinity) in male Sprague-Dawley rat at 10 mg/kg, po measured after 48 hrs by LC-MS/MS analysis", "type": "ADME, organism-based", "conditions": "in vivo"}}, "note": "The source made the active and inactive calls. No cut-off for these calls is given here.", "data": [{"compound": "Cc1cc2cccnc2cc1Nc1ncc2c(n1)N(C1CCOCC1)Cc1nncn1-2", "values": [{"measurement": "bioavailability", "setting": "[1]", "result": 31.8, "unit": "%"}, {"measurement": "Activity", "setting": "[2]", "result": "Non-Toxic"}, {"measurement": "Activity", "setting": "Cell membrane", "result": "Active"}, {"measurement": "inhibition", "setting": "HepG2 [3]", "result": "Dose-Dependent Effect"}, {"measurement": "Tmax", "setting": "[4]", "result": 1.4, "unit": "h"}, {"measurement": "inhibition in vivo at 10 mg/kg", "setting": "B16-F10 [5]", "result": 35.9, "unit": "%"}, {"measurement": "Vz", "setting": "[6]", "result": 38.8, "unit": "L/kg"}, {"measurement": "half-life", "setting": "[7]", "result": 2, "unit": "h"}, {"measurement": "Ratio IC50", "setting": "[8]", "result": 4.5}, {"measurement": "IC50", "setting": "[9]", "result": 0.11, "unit": "nM"}, {"measurement": "Activity", "setting": "B16-F10 [10]", "result": 4.06, "unit": "%"}, {"measurement": "Activity", "setting": "[11]", "result": "Non-Toxic"}, {"measurement": "inhibition in vivo at 10 mg/kg", "setting": "B16-F10 [12]", "result": 63.2, "unit": "%"}, {"measurement": "clearance", "setting": "[13]", "result": 55, "unit": "mL/min/kg"}, {"measurement": "Activity", "setting": "B16-F10 [14]", "result": 5.17, "unit": "%"}, {"measurement": "AUC(0-inf)", "setting": "[15]", "result": 605, "unit": "ng·h/mL"}, {"measurement": "Activity", "setting": "[16]", "result": "Non-Toxic"}, {"measurement": "Cmax", "setting": "[17]", "result": 324, "unit": "ng/mL"}, {"measurement": "inhibition", "setting": "HepG2 [18]", "result": "Dose-Dependent Effect"}, {"measurement": "AUC(0-inf)", "setting": "[19]", "result": 962, "unit": "ng·h/mL"}]}]}
